Assay [1] has as its target EGFR mutant L858R Ba/F3 cells (Homo sapiens, UniProt P00533, L858R, cells depend on it). As to the kind of experiment: Ba/F3 cell proliferation (Cell Titer Glo), EGFR L858R. The assay is classed as cell-based, murine. As to conditions: 72 hours exposure, read-out: L858R BaF3 (μM), inhibitory activity against EGFR mutants. An excerpt: (§1) The EGFR mutant L858R Ba/F3 cells have been previously described (Zhou, W., et al. Nature 462, 2009, 1070-1074). The EGFR C797S and C775S mutations were introduced via site directed mutagenesis using the Quick Change Site-Directed Mutagenesis kit into a vector containing EGFR L858R mutation (Stratagene; La Jolla, CA) according to the manufacturer's instructions. All constructs were confirmed by DNA sequencing. The constructs were then shuttled into the retroviral vector JP1540 by either using the Cre-recombination system (Agilent Technologies, Santa Clara, CA) or the In-fusion HD Cloning kit (Takara Bio USA, Inc.; Mountain view, CA). Ba/F3 cells were then infected with retrovirus per standard protocols, as described previously (Zhou, et al, Nature 2009). Stable clones were obtained by selection in puromycin (2 ug/ml). All BaF/3 mutant cells were maintained in RPMI 1640 (Cellgro; Mediatech Inc., Herndon, CA) supplemented with 10% FBS, 100 units/mL penicillin, 100 units/mL streptomycin.
(§2) Growth and inhibition of growth was assessed by the Cell Titer Glo assay (Promega, Madison, WI) and was performed according to the manufacturer's instructions. The Cell Titer Glo assay is a luminescence-based method used to determine the number of viable cells based on quantitation of the ATP present, which is directly proportional to the amount of metabolically active cells present. Ba/F3 cells of different EGFR genotypes were exposed to compounds for 72 hours and the number of cells used per experiment was determined empirically as has been previously established (Zhou, et al., Nature 2009). All experimental points were set up in triplicates in 384-well plates. […] The curves were fitted using a non-linear regression model with a sigmoidal dose response.
(§3) For inhibitory activity against EGFR mutants, the following designations are used: ≤0·25 μM=A, 0·25 μM˜0.5 μM=B, 0.5 μM˜2.5 μM=C, ≥2.5 μM=D.
(In general: In ATP-based viability assays light output follows the ATP content of the culture.)

Assay [2] deals with EGFR L858R/C797S Ba/F3 cells (Homo sapiens, UniProt P00533, C797S/L858R, cells depend on it). Kind of assay: Ba/F3 cell proliferation (Cell Titer Glo), EGFR L858R/C797S. As to conditions: 72 hours exposure, read-out: L858R/C797S (μM), inhibitory activity against EGFR mutants. The assay is classed as cell-based, murine.
EGFR L858R/C797S Ba/F3 cells, sequence (P00533 whole entry C797S/L858R): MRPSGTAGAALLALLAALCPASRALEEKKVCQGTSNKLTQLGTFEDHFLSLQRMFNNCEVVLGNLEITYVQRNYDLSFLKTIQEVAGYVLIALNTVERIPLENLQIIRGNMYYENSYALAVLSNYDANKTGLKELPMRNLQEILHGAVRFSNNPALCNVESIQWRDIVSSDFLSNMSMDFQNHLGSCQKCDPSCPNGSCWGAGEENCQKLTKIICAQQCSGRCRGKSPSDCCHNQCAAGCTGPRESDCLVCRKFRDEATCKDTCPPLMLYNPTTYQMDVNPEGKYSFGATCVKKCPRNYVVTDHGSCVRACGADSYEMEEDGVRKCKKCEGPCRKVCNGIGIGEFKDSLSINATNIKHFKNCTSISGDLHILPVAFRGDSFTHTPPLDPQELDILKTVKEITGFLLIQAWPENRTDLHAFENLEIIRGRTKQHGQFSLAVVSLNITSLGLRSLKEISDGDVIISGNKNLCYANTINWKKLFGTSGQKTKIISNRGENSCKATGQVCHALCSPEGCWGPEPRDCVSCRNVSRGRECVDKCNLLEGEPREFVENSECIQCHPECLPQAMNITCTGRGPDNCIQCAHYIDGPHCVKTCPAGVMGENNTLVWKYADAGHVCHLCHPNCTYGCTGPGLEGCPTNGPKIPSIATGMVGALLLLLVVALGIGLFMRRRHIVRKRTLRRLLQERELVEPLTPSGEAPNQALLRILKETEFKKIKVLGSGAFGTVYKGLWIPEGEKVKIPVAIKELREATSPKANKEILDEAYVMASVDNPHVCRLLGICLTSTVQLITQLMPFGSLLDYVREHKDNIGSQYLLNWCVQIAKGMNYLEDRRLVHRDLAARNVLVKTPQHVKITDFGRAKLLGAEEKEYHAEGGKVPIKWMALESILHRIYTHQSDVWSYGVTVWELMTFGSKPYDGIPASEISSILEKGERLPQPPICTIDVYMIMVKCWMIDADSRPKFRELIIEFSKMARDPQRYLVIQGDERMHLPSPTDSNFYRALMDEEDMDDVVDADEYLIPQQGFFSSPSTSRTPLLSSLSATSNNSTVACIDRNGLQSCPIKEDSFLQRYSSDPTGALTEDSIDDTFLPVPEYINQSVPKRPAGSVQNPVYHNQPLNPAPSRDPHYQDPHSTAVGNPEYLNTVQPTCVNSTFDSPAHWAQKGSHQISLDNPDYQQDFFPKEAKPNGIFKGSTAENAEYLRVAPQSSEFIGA
Excerpt: as §1, §2, §3

Bounds are passed on as bounds.

EGFR mutant L858R Ba/F3 cells, sequence (P00533 whole entry L858R): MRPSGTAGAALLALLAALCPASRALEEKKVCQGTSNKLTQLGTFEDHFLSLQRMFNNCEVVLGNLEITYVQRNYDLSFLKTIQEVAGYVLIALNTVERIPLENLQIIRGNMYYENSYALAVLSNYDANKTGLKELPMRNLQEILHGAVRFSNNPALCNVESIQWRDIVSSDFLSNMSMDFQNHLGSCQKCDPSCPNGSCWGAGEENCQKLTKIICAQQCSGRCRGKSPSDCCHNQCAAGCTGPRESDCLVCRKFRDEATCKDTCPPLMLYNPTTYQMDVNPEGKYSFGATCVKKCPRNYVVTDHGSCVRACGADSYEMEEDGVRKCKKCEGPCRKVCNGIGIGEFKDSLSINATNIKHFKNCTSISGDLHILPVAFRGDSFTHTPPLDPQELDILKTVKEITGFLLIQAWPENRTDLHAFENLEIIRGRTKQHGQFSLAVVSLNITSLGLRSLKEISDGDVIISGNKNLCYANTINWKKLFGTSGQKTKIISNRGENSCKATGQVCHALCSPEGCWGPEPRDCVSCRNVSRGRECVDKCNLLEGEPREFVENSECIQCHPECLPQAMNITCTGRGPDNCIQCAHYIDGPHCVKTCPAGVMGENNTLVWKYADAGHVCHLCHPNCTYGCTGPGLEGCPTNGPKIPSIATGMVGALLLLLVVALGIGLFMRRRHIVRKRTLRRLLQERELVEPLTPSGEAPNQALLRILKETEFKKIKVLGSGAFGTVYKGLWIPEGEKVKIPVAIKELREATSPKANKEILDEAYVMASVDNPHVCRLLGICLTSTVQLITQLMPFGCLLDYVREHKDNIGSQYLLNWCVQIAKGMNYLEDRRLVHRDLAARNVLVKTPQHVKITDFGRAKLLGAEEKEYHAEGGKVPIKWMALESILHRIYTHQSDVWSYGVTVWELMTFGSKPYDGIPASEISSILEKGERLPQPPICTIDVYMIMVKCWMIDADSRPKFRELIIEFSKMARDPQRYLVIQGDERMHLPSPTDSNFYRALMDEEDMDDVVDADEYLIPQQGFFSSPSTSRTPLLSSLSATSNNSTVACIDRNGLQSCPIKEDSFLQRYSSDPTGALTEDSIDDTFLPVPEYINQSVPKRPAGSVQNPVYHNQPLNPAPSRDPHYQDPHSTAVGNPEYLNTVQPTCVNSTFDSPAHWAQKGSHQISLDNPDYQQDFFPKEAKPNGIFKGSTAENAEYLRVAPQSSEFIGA

With `C=C(F)C(=O)NC1CCCN(c2cc3cnc(Nc4cnn(CCO)c4)nc3n(C)c2=O)C1` (stereo not shown) [Compound 016, 2-fluoro-N-[1-[2-[[1-(2-hydroxyethyl)pyrazol-4-yl]amino]-8-methyl-7-oxo-pyrido[2,3-d]pyrimidin-6-yl]-3-piperidyl]prop-2-enamide], the GI50 in assay [1] and in assay [2] was at least 2.5 µM in each case.
In the case of `C=CC(=O)N1CCN(c2cc3cnc(Nc4ccnc(OC)c4)nc3n(C)c2=O)c2cccc(C)c21` [Compound 062], the GI50 in assay [1] and in assay [2] was at most 0.25 µM throughout.
With `C=CC(=O)N1CCN(c2cc3cnc(Nc4cnn(C5CCN(C)CC5)c4)nc3n(C)c2=O)c2cccc(C)c21` [Compound 039, 8-methyl-2-[[1-(1-methyl-4-piperidyl)pyrazol-4-yl]amino]-6-(5-methyl-4-prop-2-enoyl-2,3-dihydroquinoxalin-1-yl)pyrido[2,3-d]pyrimidin-7-one], the GI50 in assay [1] and in assay [2] was at most 0.25 µM throughout.
With `C=CC(=O)N1CCN(c2cc3cnc(Nc4ccc(N5CCN(C)CC5)nc4)nc3n(C)c2=O)c2cccc(C)c21` [Compound 031], the GI50 in assay [1] and in assay [2] was at most 0.25 µM each time.
Consider `C=CC(=O)N1CCN(c2cc3cnc(Nc4ccc(N5CCC(O)CC5)cc4)nc3n(C)c2=O)c2cccc(C)c21` [Compound 027, 2-[4-(4-hydroxy-1-piperidyl)anilino]-8-methyl-6-(5-methyl-4-prop-2-enoyl-2,3-dihydroquinoxalin-1-yl)pyrido[2,3-d]pyrimidin-7-one], for which the GI50 in assay [1] and in assay [2] was at most 0.25 µM throughout.
As to `C=CC(=O)N1CCN(c2cc3cnc(Nc4cccc(N5CCS(=O)(=O)CC5)c4)nc3n(C)c2=O)c2cccc(C)c21` [Compound 045], the GI50 in assay [1] and in assay [2] was at most 0.25 µM each time.
For `C=CC(=O)N1CCN(c2cc3cnc(Nc4ccc(N5CCN(C)CC5)cc4)nc3n(C)c2=O)c2cccc(N)c21` [Compound 065, 6-(5-amino-4-prop-2-enoyl-2,3-dihydroquinoxalin-1-yl)-8-methyl-2-[4-(4-methylpiperazin-1-yl)anilino]pyrido[2,3-d]pyrimidin-7-one], the GI50 in assay [1] and in assay [2] was at most 0.25 µM throughout.
Consider `C=CC(=O)N1CCN(c2cc3cnc(Nc4cc5n(c4)CCN(C)C5=O)nc3n(C)c2=O)c2cccc(C)c21` [Compound 073, 8-methyl-2-[(2-methyl-1-oxo-3,4-dihydropyrrolo[1,2-a]pyrazin-7-yl)amino]-6-(5-methyl-4-prop-2-enoyl-2,3-dihydroquinoxalin-1-yl)pyrido[2,3-d]pyrimidin-7-one], for which the GI50 in assay [1] and in assay [2] was at most 0.25 µM throughout.
In the case of `C=CC(=O)N1CCN(c2cc3cnc(N)nc3n(-c3ccc(OCCN(C)C)nc3)c2=O)c2cccc(C)c21` [Compound 079], the results for the GI50 in assay [1] and in assay [2] were at most 0.25 µM and 0.5 to 2.5 µM, respectively.
For `C=CC(=O)N1CCN(c2cc3cnc(Nc4cnn(CCO)c4)nc3n(C)c2=O)c2cccc(C)c21` [Compound 038], in that order: at most 0.25 µM and at most 0.25 µM.
For `C=C(F)C(=O)N1CCN(c2cc3cnc(Nc4ccc(N5CCN(C)CC5)cc4)nc3n(C)c2=O)c2cccc(C)c21` [Compound 028], in that order: at most 0.25 µM and 0.25 to 0.5 µM.
The like results for `CCC(=O)N1CCN(c2cc3cnc(Nc4ccc(N5CCN(C)CC5)cc4)nc3n(C)c2=O)c2cccc(C)c21` [Compound 026] were, in that order, 0.5 to 2.5 µM and 0.5 to 2.5 µM.
Take `C=CC(=O)N1CCN(c2cc3cnc(N)nc3n(-c3ccc(OC4COC4)cc3)c2=O)c2cccc(C)c21` [Compound 093, 2-amino-6-(5-methyl-4-prop-2-enoyl-2,3-dihydroquinoxalin-1-yl)-8-[4-(oxetan-3-yloxy)phenyl]pyrido[2,3-d]pyrimidin-7-one]: the values for the GI50 in assay [1] and in assay [2] were at most 0.25 µM and 0.25 to 0.5 µM, respectively.
For `C=CC(=O)N1CC(C)N(c2cc3cnc(Nc4ccc(N5CCN(C)CC5)cc4)nc3n(C)c2=O)C(C)C1` (stereo not shown) [Compound 022, 6-(2,6-dimethyl-4-prop-2-enoyl-piperazin-1-yl)-8-methyl-2-[4-(4-methylpiperazin-1-yl)anilino]pyrido[2,3-d]pyrimidin-7-one], in that order: at least 2.5 µM and at least 2.5 µM.
For `C=CC(=O)N1CCN(c2cc3cnc(Nc4ccc(OCCN(C)C)cc4)nc3n(CCO)c2=O)c2cccc(C)c21` [Compound 047, 2-[4-[2-(dimethylamino)ethoxy]anilino]-8-(2-hydroxyethyl)-6-(5-methyl-4-prop-2-enoyl-2,3-dihydroquinoxalin-1-yl)pyrido[2,3-d]pyrimidin-7-one], in that order: at most 0.25 µM and at most 0.25 µM.
For `C=C(F)C(=O)N1CCC(c2cc3cnc(Nc4cnn(CCO)c4)nc3n(C)c2=O)c2ccccc21` (stereo not shown) [Compound 014, 6-[1-(2-fluoroprop-2-enoyl)-3,4-dihydro-2H-quinolin-4-yl]-2-[[1-(2-hydroxyethyl)pyrazol-4-yl]amino]-8-methyl-pyrido[2,3-d]pyrimidin-7-one], the GI50 in assay [1] and in assay [2] was at most 0.25 µM throughout.
For `C=CC(=O)N1CCN(c2cc3cnc(Nc4ccc(N5CCN(C)CC5)cc4)nc3n(C)c2=O)C2(CC2)C1` [Compound 012, 8-methyl-2-[4-(4-methylpiperazin-1-yl)anilino]-6-(7-prop-2-enoyl-4,7-diazaspiro[2.5]octan-4-yl)pyrido[2,3-d]pyrimidin-7-one], the GI50 in assay [1] and in assay [2] was at least 2.5 µM each time.
Take `C=CC(=O)N1CCN(c2cc3cnc(Nc4ccc(OCCN(C)C)cc4)nc3n(C3CC(O)C3)c2=O)c2cccc(C)c21` (stereo not shown) [Compound 042, 2-[4-[2-(dimethylamino)ethoxy]anilino]-8-(3-hydroxycyclobutyl)-6-(5-methyl-4-prop-2-enoyl-2,3-dihydroquinoxalin-1-yl)pyrido[2,3-d]pyrimidin-7-one]: the GI50 in assay [1] and in assay [2] was at most 0.25 µM throughout.
In the case of `C=CC(=O)N1CCN(c2cc3cnc(Nc4ccc(OC5CN(S(C)(=O)=O)C5)cc4)nc3n(C)c2=O)c2cccc(C)c21` [Compound 049], the GI50 in assay [1] and in assay [2] was at most 0.25 µM in each case.
On to `C=CC(=O)N1CCN(c2cc3cnc(N)nc3n(-c3cccc(Cl)c3)c2=O)c2cccc(C)c21` [Compound 091, 2-amino-8-(3-chlorophenyl)-6-(5-methyl-4-prop-2-enoyl-2,3-dihydroquinoxalin-1-yl)pyrido[2,3-d]pyrimidin-7-one], for which the GI50 in assay [1] is at most 0.25 µM; in assay [2], 0.25 to 0.5 µM.
For `C=CC(=O)N1CCN(c2cc3cnc(NC4CC4)nc3n(-c3ccc(N(C)CCN(C)C)cc3)c2=O)c2cccc(C)c21` [Compound 095, 2-(cyclopropylamino)-8-[4-[2-(dimethylamino)ethyl-methyl-amino]phenyl]-6-(5-methyl-4-prop-2-enoyl-2,3-dihydroquinoxalin-1-yl)pyrido[2,3-d]pyrimidin-7-one], in that order: at most 0.25 µM and at most 0.25 µM.
In the case of `C=CC(=O)N1CCN(c2cc3cnc(Nc4cnn(CCO)c4)nc3n(C)c2=O)c2cccc(OC)c21` [Compound 020, 2-[[1-(2-hydroxyethyl)pyrazol-4-yl]amino]-6-(5-methoxy-4-prop-2-enoyl-2,3-dihydroquinoxalin-1-yl)-8-methyl-pyrido[2,3-d]pyrimidin-7-one], the figures for the GI50 in assay [1] and in assay [2] were at most 0.25 µM and 0.25 to 0.5 µM, respectively.
As for `C=CC(=O)N1CCN(c2cc3cnc(Nc4cc5n(c4)CCN(C)C5)nc3n(C)c2=O)c2cccc(C)c21` [Compound 085, 8-methyl-2-[(2-methyl-3,4-dihydro-1H-pyrrolo[1,2-a]pyrazin-7-yl)amino]-6-(5-methyl-4-prop-2-enoyl-2,3-dihydroquinoxalin-1-yl)pyrido[2,3-d]pyrimidin-7-one], the GI50 in assay [1] and in assay [2] was at least 2.5 µM each time.
For the compound `C=CC(=O)N1CCC(c2cc3cnc(Nc4cnn(CCO)c4)nc3n(C)c2=O)c2ccccc21` (stereo not shown) [Compound 017, 2-[[1-(2-hydroxyethyl)pyrazol-4-yl]amino]-8-methyl-6-(1-prop-2-enoyl-3,4-dihydro-2H-quinolin-4-yl)pyrido[2,3-d]pyrimidin-7-one], the GI50 in assay [1] and in assay [2] was at most 0.25 µM throughout.
Take `C=CC(=O)N1CCN(c2cc3cnc(N)nc3n(-c3ccc(N4CCOCC4)cc3)c2=O)c2cccc(C)c21` [Compound 089, 2-amino-6-(5-methyl-4-prop-2-enoyl-2,3-dihydroquinoxalin-1-yl)-8-(4-morpholinophenyl)pyrido[2,3-d]pyrimidin-7-one]: the GI50 in assay [1] and in assay [2] was at most 0.25 µM throughout.
In the case of `C=CC(=O)N1CCN(c2cc3cnc(Nc4ccc(CS(=O)(=O)NC)cc4)nc3n(C)c2=O)c2cccc(O)c21` [Compound 053], the GI50 is at most 0.25 µM in assay [1] and 0.25 to 0.5 µM in assay [2].

The record behind these values is patent publication US20250221998A1, “DISCOVERY OF COVALENT EGFR INHIBITOR THROUGH CYSTEINE 775” (Dana-Farber Cancer Institute, Inc., priority 2022, published 2025).
